# Tested on: Echinochloa oryzicola (barnyard grass)
# Assay: Test Example-1: herbicidal effect by a treatment before weeds are generated under submerged conditions
# Assay type: in vivo
# Details: 500 g a.i/ha, pre-emergence treatment, about 15 days after treatment, score 0-5
# Description: (§1) Using the formulation prepared according to the methods described above, the herbicidal effect of the bicyclic pyrazolinone derivative of the invention according to the methods shown in Test Examples below was examined. The herbicidal effect with respect to the test weeds or the phytotoxicity with respect to the test crops was examined according to the following criteria, and evaluated in six stage scores of 0 to 5.
# (§2) A plastic cup of 30 cm^2 was filled with paddy soil, soil puddling was performed, seeds of Echinochloa oryzicola (barnyard grass), Cyperus difformis (smallflower umbrella plant), Monochoria vaginalis (monochoria), Scirpus juncoides (bulrush), and Eleocharis acicularis (needle spikerush), and Lindernia procumbens (common false pimpernel), Rotala indica (indian toothcup), Elatine triandra (waterwort) as other annual broad leaf weeds were seeded therein, and kept in a submerged state. A wettable powder or an emulsifiable concentrate of the compound of the present invention prepared according to Formulation Example was diluted on the weed seeding day, and a submersing treatment was performed so as to be a predetermined dosage. The herbicidal effect with respect to the test weeds about 15 days after the treatment was evaluated according to the evaluation criteria in six stages of 0 to 5 described above.
row,Compound,Herbicidal effect Echinochloa oryzicola
1,COCOc1ccc(Oc2cc(-c3c(Cl)n4n(c3=O)CCCC4)c(F)cc2Cl)cc1 [Compound 3-15],5 (Herbicidal effect/phytotoxicity was 90% or greater)
2,N#CCOc1ccc(Oc2cc(-c3c(Cl)n4n(c3=O)CCCC4)c(F)cc2Cl)cc1 [Compound 3-20],5 (Herbicidal effect/phytotoxicity was 90% or greater)
3,O=c1c(-c2cc(OCC3CCCC3)c(Cl)cc2F)c(Cl)n2n1CCCC2 [Example 1-186],5 (Herbicidal effect/phytotoxicity was 90% or greater)
4,O=c1c(-c2cc(OC3C=CCCC3)c(F)cc2F)c(Cl)n2n1CCCC2 (stereo not drawn) [Example 1-112],5 (Herbicidal effect/phytotoxicity was 90% or greater)
5,O=c1c(-c2cc(OC3CCCC3)c(F)cc2F)c(Cl)n2n1CCCC2 [Example 1-98],5 (Herbicidal effect/phytotoxicity was 90% or greater)
6,CC1(COc2cc(-c3c(Cl)n4n(c3=O)CCCC4)c(F)cc2Cl)CC(c2ccccc2F)=NO1 (stereo not drawn) [Compound 4-3],5 (Herbicidal effect/phytotoxicity was 90% or greater)

# Tested on: Eleocharis acicularis (needle spikerush)
# Assay: as above
# Assay type: in vivo
# Details: 500 g a.i/ha, pre-emergence treatment, about 15 days after treatment, score 0-5
# Description: as §1, §2
row,Compound,Herbicidal effect Eleocharis acicularis
1,COCOc1ccc(Oc2cc(-c3c(Cl)n4n(c3=O)CCCC4)c(F)cc2Cl)cc1 [Compound 3-15],5 (Herbicidal effect/phytotoxicity was 90% or greater)
2,N#CCOc1ccc(Oc2cc(-c3c(Cl)n4n(c3=O)CCCC4)c(F)cc2Cl)cc1 [Compound 3-20],5 (Herbicidal effect/phytotoxicity was 90% or greater)
3,O=c1c(-c2cc(OCC3CCCC3)c(Cl)cc2F)c(Cl)n2n1CCCC2 [Example 1-186],5 (Herbicidal effect/phytotoxicity was 90% or greater)
4,O=c1c(-c2cc(OC3C=CCCC3)c(F)cc2F)c(Cl)n2n1CCCC2 (stereo not drawn) [Example 1-112],5 (Herbicidal effect/phytotoxicity was 90% or greater)
5,O=c1c(-c2cc(OC3CCCC3)c(F)cc2F)c(Cl)n2n1CCCC2 [Example 1-98],5 (Herbicidal effect/phytotoxicity was 90% or greater)
6,CC1(COc2cc(-c3c(Cl)n4n(c3=O)CCCC4)c(F)cc2Cl)CC(c2ccccc2F)=NO1 (stereo not drawn) [Compound 4-3],5 (Herbicidal effect/phytotoxicity was 90% or greater)

# Tested on: Scirpus juncoides (bulrush)
# Assay: as above
# Assay type: in vivo
# Details: 500 g a.i/ha, pre-emergence treatment, about 15 days after treatment, score 0-5
# Description: as §1, §2
row,Compound,Herbicidal effect Scirpus juncoides
1,COCOc1ccc(Oc2cc(-c3c(Cl)n4n(c3=O)CCCC4)c(F)cc2Cl)cc1 [Compound 3-15],5 (Herbicidal effect/phytotoxicity was 90% or greater)
2,N#CCOc1ccc(Oc2cc(-c3c(Cl)n4n(c3=O)CCCC4)c(F)cc2Cl)cc1 [Compound 3-20],5 (Herbicidal effect/phytotoxicity was 90% or greater)
3,O=c1c(-c2cc(OCC3CCCC3)c(Cl)cc2F)c(Cl)n2n1CCCC2 [Example 1-186],5 (Herbicidal effect/phytotoxicity was 90% or greater)
4,O=c1c(-c2cc(OC3C=CCCC3)c(F)cc2F)c(Cl)n2n1CCCC2 (stereo not drawn) [Example 1-112],5 (Herbicidal effect/phytotoxicity was 90% or greater)
5,O=c1c(-c2cc(OC3CCCC3)c(F)cc2F)c(Cl)n2n1CCCC2 [Example 1-98],5 (Herbicidal effect/phytotoxicity was 90% or greater)
6,CC1(COc2cc(-c3c(Cl)n4n(c3=O)CCCC4)c(F)cc2Cl)CC(c2ccccc2F)=NO1 (stereo not drawn) [Compound 4-3],5 (Herbicidal effect/phytotoxicity was 90% or greater)

# Tested on: Monochoria vaginalis (monochoria)
# Assay: as above
# Assay type: in vivo
# Details: 500 g a.i/ha, pre-emergence treatment, about 15 days after treatment, score 0-5
# Description: as §1, §2
row,Compound,Herbicidal effect Monochoria vaginalis
1,COCOc1ccc(Oc2cc(-c3c(Cl)n4n(c3=O)CCCC4)c(F)cc2Cl)cc1 [Compound 3-15],5 (Herbicidal effect/phytotoxicity was 90% or greater)
2,N#CCOc1ccc(Oc2cc(-c3c(Cl)n4n(c3=O)CCCC4)c(F)cc2Cl)cc1 [Compound 3-20],5 (Herbicidal effect/phytotoxicity was 90% or greater)
3,O=c1c(-c2cc(OCC3CCCC3)c(Cl)cc2F)c(Cl)n2n1CCCC2 [Example 1-186],5 (Herbicidal effect/phytotoxicity was 90% or greater)
4,O=c1c(-c2cc(OC3C=CCCC3)c(F)cc2F)c(Cl)n2n1CCCC2 (stereo not drawn) [Example 1-112],5 (Herbicidal effect/phytotoxicity was 90% or greater)
5,O=c1c(-c2cc(OC3CCCC3)c(F)cc2F)c(Cl)n2n1CCCC2 [Example 1-98],5 (Herbicidal effect/phytotoxicity was 90% or greater)
6,CC1(COc2cc(-c3c(Cl)n4n(c3=O)CCCC4)c(F)cc2Cl)CC(c2ccccc2F)=NO1 (stereo not drawn) [Compound 4-3],5 (Herbicidal effect/phytotoxicity was 90% or greater)

# Tested on: other annual broad leaf weeds (Lindernia procumbens, Rotala indica, Elatine triandra)
# Assay: as above
# Assay type: in vivo
# Details: 500 g a.i/ha, pre-emergence treatment, about 15 days after treatment, score 0-5
# Description: as §1, §2
row,Compound,Herbicidal effect Broadleaf weed
1,COCOc1ccc(Oc2cc(-c3c(Cl)n4n(c3=O)CCCC4)c(F)cc2Cl)cc1 [Compound 3-15],5 (Herbicidal effect/phytotoxicity was 90% or greater)
2,N#CCOc1ccc(Oc2cc(-c3c(Cl)n4n(c3=O)CCCC4)c(F)cc2Cl)cc1 [Compound 3-20],5 (Herbicidal effect/phytotoxicity was 90% or greater)
3,O=c1c(-c2cc(OCC3CCCC3)c(Cl)cc2F)c(Cl)n2n1CCCC2 [Example 1-186],5 (Herbicidal effect/phytotoxicity was 90% or greater)
4,O=c1c(-c2cc(OC3C=CCCC3)c(F)cc2F)c(Cl)n2n1CCCC2 (stereo not drawn) [Example 1-112],5 (Herbicidal effect/phytotoxicity was 90% or greater)
5,O=c1c(-c2cc(OC3CCCC3)c(F)cc2F)c(Cl)n2n1CCCC2 [Example 1-98],5 (Herbicidal effect/phytotoxicity was 90% or greater)
6,CC1(COc2cc(-c3c(Cl)n4n(c3=O)CCCC4)c(F)cc2Cl)CC(c2ccccc2F)=NO1 (stereo not drawn) [Compound 4-3],5 (Herbicidal effect/phytotoxicity was 90% or greater)

# Tested on: Cyperus difformis (smallflower umbrella plant)
# Assay: as above
# Assay type: in vivo
# Details: 500 g a.i/ha, pre-emergence treatment, about 15 days after treatment, score 0-5
# Description: as §1, §2
row,Compound,Herbicidal effect Cyperus difformis
1,COCOc1ccc(Oc2cc(-c3c(Cl)n4n(c3=O)CCCC4)c(F)cc2Cl)cc1 [Compound 3-15],5 (Herbicidal effect/phytotoxicity was 90% or greater)
2,N#CCOc1ccc(Oc2cc(-c3c(Cl)n4n(c3=O)CCCC4)c(F)cc2Cl)cc1 [Compound 3-20],5 (Herbicidal effect/phytotoxicity was 90% or greater)
3,O=c1c(-c2cc(OCC3CCCC3)c(Cl)cc2F)c(Cl)n2n1CCCC2 [Example 1-186],5 (Herbicidal effect/phytotoxicity was 90% or greater)
4,O=c1c(-c2cc(OC3C=CCCC3)c(F)cc2F)c(Cl)n2n1CCCC2 (stereo not drawn) [Example 1-112],5 (Herbicidal effect/phytotoxicity was 90% or greater)
5,O=c1c(-c2cc(OC3CCCC3)c(F)cc2F)c(Cl)n2n1CCCC2 [Example 1-98],5 (Herbicidal effect/phytotoxicity was 90% or greater)
6,CC1(COc2cc(-c3c(Cl)n4n(c3=O)CCCC4)c(F)cc2Cl)CC(c2ccccc2F)=NO1 (stereo not drawn) [Compound 4-3],5 (Herbicidal effect/phytotoxicity was 90% or greater)
